Blank lines part the entries; values can stand above or below the compound they belong to.
Assays:
[1] = molecular target: T1, Neuropeptide Y receptor type 1 (Homo sapiens) (UniProt P25929); assay: Binding affinity towards NPY1 receptor
T1 sequence (whole entry): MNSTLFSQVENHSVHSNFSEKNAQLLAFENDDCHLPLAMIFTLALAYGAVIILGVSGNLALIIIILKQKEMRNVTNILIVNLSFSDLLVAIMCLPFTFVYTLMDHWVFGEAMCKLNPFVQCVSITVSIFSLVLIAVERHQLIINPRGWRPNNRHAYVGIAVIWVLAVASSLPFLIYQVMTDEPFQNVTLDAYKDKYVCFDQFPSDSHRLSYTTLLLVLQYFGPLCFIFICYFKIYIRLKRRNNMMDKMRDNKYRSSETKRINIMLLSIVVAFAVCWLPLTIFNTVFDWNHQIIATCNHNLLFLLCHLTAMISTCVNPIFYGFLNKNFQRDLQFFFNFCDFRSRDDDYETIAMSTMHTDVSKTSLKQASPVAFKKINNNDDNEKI

[2] = molecular target: T2, Neuropeptide Y receptor type 5 (Homo sapiens) (UniProt Q15761); assay: Binding affinity towards NPY5 receptor
T2 sequence (whole entry): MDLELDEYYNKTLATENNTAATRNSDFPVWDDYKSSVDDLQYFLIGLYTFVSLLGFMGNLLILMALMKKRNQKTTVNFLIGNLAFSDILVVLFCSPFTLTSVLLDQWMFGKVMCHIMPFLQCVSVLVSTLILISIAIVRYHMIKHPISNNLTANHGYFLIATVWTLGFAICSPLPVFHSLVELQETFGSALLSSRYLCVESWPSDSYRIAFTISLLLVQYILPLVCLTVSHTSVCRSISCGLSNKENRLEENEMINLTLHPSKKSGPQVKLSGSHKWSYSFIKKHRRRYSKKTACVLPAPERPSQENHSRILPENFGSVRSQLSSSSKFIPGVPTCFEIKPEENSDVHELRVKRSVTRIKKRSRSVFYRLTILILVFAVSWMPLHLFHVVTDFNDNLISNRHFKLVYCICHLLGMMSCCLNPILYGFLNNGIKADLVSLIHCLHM

[3] = molecular target: C-C chemokine receptor type 5 (Homo sapiens) (UniProt P51681); assay: Binding affinity towards CCR5 receptor
[4] = molecular target: T3, C-X-C chemokine receptor type 3 (Homo sapiens) (UniProt P49682); assay: Binding affinity towards CXCR3 receptor
T3 sequence (whole entry): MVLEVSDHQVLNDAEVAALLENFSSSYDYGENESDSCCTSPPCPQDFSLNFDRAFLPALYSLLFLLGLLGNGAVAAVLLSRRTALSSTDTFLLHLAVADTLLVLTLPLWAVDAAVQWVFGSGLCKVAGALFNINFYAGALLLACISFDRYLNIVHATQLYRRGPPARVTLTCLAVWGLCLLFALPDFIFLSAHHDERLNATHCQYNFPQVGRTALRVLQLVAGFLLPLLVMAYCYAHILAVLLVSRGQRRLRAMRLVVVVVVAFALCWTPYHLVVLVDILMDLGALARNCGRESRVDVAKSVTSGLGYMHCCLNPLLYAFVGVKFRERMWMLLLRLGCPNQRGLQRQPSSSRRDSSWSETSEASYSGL

[5] = molecular target: C-X-C chemokine receptor type 4 (Homo sapiens) (UniProt P61073); assay: Binding affinity towards CXCR4 receptor
[6] = molecular target: T4, C-C chemokine receptor type 1 (Homo sapiens) (UniProt P32246); assay: Binding affinity towards CCR1 receptor
T4 sequence (whole entry): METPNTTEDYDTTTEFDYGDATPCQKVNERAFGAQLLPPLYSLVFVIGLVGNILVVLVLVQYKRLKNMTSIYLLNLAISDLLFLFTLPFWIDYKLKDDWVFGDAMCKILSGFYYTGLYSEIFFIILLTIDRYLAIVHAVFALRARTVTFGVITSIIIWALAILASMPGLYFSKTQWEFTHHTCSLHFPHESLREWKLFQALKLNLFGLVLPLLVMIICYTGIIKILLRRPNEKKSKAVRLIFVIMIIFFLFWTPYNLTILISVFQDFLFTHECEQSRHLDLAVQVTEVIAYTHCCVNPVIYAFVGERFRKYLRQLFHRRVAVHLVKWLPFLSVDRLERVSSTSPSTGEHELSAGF

[7] = molecular target: C-C chemokine receptor type 2 (Homo sapiens) (UniProt P41597); assay: Binding affinity towards CCR2 receptor
[8] = molecular target: T5, C-C chemokine receptor type 3 (Homo sapiens) (UniProt P51677); assay: Binding affinity towards CCR3 receptor
T5 sequence (whole entry): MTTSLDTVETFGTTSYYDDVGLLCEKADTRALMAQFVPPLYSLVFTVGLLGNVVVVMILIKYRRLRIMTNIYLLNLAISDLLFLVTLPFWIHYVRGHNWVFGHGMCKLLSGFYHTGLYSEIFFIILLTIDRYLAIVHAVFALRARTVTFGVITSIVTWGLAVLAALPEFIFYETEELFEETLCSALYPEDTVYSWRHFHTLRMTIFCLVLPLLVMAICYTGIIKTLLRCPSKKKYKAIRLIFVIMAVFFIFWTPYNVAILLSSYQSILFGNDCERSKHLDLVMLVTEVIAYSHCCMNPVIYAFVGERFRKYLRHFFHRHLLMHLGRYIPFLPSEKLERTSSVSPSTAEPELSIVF

[9] = molecular target: Melanocortin receptor 4 (Homo sapiens) (UniProt P32245); assay: Binding affinity towards MCR-4 receptor
[10] = molecular target: T6, 5-hydroxytryptamine receptor 1A (Homo sapiens) (UniProt P08908); assay: Binding affinity towards 5-hydroxytryptamine 1A receptor
T6 sequence (whole entry): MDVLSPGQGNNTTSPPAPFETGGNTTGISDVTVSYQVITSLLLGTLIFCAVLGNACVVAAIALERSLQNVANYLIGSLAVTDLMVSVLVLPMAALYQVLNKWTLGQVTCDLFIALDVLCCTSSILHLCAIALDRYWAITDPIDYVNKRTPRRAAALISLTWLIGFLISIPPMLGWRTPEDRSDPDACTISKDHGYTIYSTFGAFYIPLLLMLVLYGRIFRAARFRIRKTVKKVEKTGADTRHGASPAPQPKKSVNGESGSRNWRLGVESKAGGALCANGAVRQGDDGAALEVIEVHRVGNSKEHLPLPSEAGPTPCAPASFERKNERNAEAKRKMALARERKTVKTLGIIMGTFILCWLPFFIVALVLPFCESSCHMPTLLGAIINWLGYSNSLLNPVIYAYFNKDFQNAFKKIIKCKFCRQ

[11] = molecular target: 5-hydroxytryptamine receptor 6 (Homo sapiens) (UniProt P50406); assay: Binding affinity towards human 5-hydroxytryptamine 6 receptor
[12] = molecular target: 5-hydroxytryptamine receptor 5A (Homo sapiens) (UniProt P47898); assay: Binding affinity towards 5-HT5a receptor
[13] = molecular target: 5-hydroxytryptamine receptor 7 (Homo sapiens) (UniProt P34969); assay: Binding affinity towards 5-hydroxytryptamine 7 receptor
[14] = molecular target: T7, 5-hydroxytryptamine receptor 2C (Homo sapiens) (UniProt P28335); assay: Binding affinity towards 5-hydroxytryptamine 2C receptor
T7 sequence (whole entry): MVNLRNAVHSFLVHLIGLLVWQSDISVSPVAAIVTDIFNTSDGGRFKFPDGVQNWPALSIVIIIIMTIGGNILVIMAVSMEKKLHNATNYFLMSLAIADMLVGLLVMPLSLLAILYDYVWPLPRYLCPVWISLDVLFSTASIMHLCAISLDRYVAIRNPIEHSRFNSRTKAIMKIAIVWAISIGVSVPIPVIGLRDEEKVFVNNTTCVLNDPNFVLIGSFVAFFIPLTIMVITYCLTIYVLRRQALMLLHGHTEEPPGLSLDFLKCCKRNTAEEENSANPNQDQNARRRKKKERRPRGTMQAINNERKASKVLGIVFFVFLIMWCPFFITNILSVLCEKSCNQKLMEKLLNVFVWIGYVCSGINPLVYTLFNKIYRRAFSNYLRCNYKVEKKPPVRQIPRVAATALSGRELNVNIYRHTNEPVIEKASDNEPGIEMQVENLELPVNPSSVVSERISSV

[15] = molecular target: 5-hydroxytryptamine receptor 2A (Homo sapiens) (UniProt P28223); assay: Binding affinity towards 5-hydroxytryptamine 2A receptor
[16] = molecular target: T8, Substance-K receptor (Homo sapiens) (UniProt P21452); assay: Binding affinity towards NK2 receptor
T8 sequence (whole entry): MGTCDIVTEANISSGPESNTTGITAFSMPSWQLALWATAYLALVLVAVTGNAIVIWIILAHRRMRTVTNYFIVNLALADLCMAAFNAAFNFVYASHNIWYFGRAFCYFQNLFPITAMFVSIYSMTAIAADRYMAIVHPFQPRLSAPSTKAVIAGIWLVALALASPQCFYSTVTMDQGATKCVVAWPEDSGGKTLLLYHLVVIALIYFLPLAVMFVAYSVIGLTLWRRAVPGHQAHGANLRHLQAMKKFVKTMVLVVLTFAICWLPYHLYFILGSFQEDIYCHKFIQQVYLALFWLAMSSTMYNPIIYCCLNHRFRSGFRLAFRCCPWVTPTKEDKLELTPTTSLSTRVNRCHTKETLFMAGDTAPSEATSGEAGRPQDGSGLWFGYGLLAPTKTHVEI

[17] = molecular target: Substance-P receptor (Homo sapiens) (UniProt P25103); assay: Binding affinity towards human NK1 receptor
[18] = molecular target: T9, Neuromedin-K receptor (Homo sapiens) (UniProt P29371); assay: Binding affinity towards NK3 receptor
T9 sequence (whole entry): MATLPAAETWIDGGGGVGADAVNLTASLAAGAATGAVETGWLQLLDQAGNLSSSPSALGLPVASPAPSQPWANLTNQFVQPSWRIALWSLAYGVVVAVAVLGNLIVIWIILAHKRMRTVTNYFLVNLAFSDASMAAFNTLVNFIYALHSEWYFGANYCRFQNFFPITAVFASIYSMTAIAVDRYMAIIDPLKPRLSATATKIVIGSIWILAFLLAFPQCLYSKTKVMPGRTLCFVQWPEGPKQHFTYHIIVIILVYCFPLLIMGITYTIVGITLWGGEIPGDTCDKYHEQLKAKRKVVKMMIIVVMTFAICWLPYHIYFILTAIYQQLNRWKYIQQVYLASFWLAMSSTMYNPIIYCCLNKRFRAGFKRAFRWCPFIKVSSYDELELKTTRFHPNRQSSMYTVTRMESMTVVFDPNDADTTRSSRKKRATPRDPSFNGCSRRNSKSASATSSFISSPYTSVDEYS

[19] = molecular target: T10, Gonadotropin-releasing hormone receptor (Homo sapiens) (UniProt P30968); assay: Binding affinity towards GnRH receptor
T10 sequence (whole entry): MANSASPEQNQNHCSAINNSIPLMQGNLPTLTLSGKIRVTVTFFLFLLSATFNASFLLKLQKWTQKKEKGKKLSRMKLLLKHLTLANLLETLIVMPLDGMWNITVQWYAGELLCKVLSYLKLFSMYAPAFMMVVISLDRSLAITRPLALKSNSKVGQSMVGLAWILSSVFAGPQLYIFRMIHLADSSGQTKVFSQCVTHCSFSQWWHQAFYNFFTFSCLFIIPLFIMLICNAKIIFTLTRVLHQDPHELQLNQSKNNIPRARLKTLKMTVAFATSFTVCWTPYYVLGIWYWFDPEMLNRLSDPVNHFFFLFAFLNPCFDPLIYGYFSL

5-hydroxytryptamine receptor 7 (Homo sapiens), sequence (P34969 whole entry): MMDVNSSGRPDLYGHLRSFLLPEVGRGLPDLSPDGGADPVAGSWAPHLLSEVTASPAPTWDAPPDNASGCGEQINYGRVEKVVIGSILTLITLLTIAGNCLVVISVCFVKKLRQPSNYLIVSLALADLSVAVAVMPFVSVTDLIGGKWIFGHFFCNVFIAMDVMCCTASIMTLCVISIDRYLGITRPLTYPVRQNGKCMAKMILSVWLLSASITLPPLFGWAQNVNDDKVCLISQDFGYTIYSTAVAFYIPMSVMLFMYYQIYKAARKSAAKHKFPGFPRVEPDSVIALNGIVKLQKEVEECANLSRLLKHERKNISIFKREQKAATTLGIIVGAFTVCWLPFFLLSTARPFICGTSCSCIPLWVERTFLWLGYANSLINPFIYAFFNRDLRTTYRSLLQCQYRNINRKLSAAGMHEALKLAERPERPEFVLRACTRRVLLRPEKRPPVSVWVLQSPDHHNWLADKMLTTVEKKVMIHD
5-hydroxytryptamine receptor 5A (Homo sapiens), sequence (P47898 whole entry): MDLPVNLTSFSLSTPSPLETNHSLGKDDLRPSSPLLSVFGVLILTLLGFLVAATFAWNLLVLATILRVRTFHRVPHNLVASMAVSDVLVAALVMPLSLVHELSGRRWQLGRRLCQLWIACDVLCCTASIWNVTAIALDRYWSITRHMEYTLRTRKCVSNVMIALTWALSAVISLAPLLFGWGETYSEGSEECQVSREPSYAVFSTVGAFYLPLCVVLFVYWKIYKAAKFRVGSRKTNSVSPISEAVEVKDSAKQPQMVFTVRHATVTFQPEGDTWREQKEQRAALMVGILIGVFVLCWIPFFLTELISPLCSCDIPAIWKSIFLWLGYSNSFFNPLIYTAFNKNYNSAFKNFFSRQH
5-hydroxytryptamine receptor 6 (Homo sapiens), sequence (P50406 whole entry): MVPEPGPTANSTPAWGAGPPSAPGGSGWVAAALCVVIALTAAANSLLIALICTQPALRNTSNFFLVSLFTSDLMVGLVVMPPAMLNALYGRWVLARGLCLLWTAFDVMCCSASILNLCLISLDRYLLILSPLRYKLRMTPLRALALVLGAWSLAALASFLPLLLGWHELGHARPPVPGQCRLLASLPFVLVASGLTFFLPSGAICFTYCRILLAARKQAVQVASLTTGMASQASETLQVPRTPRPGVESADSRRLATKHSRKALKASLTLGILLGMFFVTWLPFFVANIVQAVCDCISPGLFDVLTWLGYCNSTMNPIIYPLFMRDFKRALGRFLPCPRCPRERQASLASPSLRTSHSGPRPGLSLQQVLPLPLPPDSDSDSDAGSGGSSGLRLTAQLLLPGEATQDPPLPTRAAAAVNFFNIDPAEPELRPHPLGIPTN
Melanocortin receptor 4 (Homo sapiens), sequence (P32245 whole entry): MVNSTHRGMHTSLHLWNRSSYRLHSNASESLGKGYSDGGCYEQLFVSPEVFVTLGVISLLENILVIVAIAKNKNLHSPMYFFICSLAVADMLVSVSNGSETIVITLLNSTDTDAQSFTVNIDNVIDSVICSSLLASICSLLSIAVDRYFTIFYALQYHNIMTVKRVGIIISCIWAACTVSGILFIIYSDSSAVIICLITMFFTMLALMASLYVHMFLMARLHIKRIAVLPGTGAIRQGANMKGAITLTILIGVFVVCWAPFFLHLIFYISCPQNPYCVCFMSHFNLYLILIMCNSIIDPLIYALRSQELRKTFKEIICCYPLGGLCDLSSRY
Substance-P receptor (Homo sapiens), sequence (P25103 whole entry): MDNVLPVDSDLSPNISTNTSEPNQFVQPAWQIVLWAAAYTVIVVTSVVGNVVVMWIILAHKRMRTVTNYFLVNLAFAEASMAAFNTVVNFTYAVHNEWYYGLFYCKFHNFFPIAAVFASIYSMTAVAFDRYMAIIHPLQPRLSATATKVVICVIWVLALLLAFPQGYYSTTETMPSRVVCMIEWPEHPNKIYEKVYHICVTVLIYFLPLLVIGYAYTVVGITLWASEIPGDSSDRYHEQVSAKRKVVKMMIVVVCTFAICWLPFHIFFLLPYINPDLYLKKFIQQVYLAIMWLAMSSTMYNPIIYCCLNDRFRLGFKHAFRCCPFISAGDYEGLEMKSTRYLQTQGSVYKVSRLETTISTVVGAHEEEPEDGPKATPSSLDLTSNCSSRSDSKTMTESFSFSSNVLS
5-hydroxytryptamine receptor 2A (Homo sapiens), sequence (P28223 whole entry): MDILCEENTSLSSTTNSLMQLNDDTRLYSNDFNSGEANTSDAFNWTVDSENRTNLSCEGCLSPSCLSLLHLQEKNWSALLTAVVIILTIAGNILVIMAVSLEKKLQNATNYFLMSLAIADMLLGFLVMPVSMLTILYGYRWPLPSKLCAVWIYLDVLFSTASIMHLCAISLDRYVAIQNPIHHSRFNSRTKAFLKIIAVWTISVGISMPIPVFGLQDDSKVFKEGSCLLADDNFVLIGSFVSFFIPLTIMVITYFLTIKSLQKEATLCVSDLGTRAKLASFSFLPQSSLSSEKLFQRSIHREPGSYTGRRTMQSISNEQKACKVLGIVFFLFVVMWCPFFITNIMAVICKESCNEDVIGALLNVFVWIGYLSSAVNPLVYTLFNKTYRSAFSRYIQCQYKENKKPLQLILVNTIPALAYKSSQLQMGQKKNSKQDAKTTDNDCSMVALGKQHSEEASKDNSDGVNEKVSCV
C-C chemokine receptor type 2 (Homo sapiens), sequence (P41597 whole entry, looked up): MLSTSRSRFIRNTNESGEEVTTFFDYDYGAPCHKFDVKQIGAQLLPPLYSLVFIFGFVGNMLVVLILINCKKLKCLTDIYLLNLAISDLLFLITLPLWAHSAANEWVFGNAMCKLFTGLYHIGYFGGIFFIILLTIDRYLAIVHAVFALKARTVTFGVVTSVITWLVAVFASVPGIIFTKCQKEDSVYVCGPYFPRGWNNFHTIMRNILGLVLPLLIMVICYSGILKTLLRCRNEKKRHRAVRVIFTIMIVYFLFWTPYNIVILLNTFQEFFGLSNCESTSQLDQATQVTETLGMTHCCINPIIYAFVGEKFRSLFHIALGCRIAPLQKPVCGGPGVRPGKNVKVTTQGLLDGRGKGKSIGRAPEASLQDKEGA
C-X-C chemokine receptor type 4 (Homo sapiens), sequence (P61073 whole entry): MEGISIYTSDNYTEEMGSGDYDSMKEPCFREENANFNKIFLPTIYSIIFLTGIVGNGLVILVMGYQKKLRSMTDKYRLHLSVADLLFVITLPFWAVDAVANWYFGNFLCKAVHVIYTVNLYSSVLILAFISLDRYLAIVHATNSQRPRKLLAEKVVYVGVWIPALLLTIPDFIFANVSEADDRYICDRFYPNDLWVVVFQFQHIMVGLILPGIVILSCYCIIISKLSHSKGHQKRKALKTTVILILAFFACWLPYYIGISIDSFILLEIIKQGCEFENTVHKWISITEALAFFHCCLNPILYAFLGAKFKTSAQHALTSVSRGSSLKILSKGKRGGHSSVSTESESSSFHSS
C-C chemokine receptor type 5 (Homo sapiens), sequence (P51681 whole entry, looked up): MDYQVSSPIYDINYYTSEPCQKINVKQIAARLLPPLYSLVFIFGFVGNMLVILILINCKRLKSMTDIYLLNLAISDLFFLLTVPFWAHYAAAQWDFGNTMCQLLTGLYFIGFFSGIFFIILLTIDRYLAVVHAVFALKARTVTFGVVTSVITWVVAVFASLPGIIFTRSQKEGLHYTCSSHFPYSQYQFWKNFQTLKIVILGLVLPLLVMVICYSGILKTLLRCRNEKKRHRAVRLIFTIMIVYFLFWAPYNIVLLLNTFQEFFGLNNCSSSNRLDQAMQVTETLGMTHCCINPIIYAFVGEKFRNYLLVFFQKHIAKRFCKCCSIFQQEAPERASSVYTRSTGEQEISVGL

Activity [1]: > 10 µM
Activity [2]: 0.8 nM
Structure (SMILES): CC(NCCCc1c(-c2cccc(Br)c2)[nH]c2ccccc12)c1ccc(O)cc1 (stereo not drawn)

Activity [3]: 1190 nM
Activity [4]: > 10 µM
Activity [5]: 1520 nM
Activity [6]: > 10 µM
Activity [7]: > 10 µM
Activity [8]: 920 nM
Structure (SMILES): Brc1ccc(-c2[nH]c3ccc4ccccc4c3c2CCCNC2CCC(c3ccccc3)C2)cc1 (stereo not drawn)

Activity [9]: 612 nM
Structure (SMILES): Cc1ccc2[nH]c(-c3ccc(Br)cc3)c(CCCCCNC3CCCCC3)c2c1

Activity [10]: > 1 µM
Activity [11]: 635 nM
Activity [12]: > 1 µM
Activity [13]: > 1 µM
Activity [14]: 60 nM
Activity [15]: 10 nM
Structure (SMILES): Brc1ccc(-c2[nH]c3cccc(-c4ccccc4)c3c2CCCN2CCCC2)cc1

Activity [16]: > 10 µM
Activity [17]: 0.8 nM
Activity [18]: > 10 µM
Structure (SMILES): COc1ccccc1N1CCN(C(=O)CCc2c(-c3ccc(Br)cc3)[nH]c3ccc(C)cc23)CC1

Activity [10]: > 1 µM
Activity [11]: 0.7 nM
Activity [12]: > 1 µM
Activity [13]: 0.3 µM
Structure (SMILES): CN(C)CCCc1c(-c2cccc(Br)c2)[nH]c2ccccc12

Activity [19]: 52 nM
Structure (SMILES): CCOC(=O)C(C)(C)c1ccc2[nH]c(-c3cc(C)cc(C)c3)c(CCCN3CCC(O)(c4ccccc4)CC3)c2c1
